# Reference: ChEMBL document CHEMBL3885881, “DrugMatrix”
# Species on record: Rattus norvegicus
# Assay: DrugMatrix - Regimen: Daily Repeat
# Type: toxicity, organism-based, Sprague-Dawley
# Parameters: regimen Daily Repeat, gender Male, age 6-8 weeks
# Conditions: in vivo, po, route oral GAVAGE, vehicle .5 % CMC; for ABSOLUTE BASOPHIL / ABSOLUTE EOSINOPHIL / ABSOLUTE LYMPHOCYTE / ABSOLUTE MONOCYTE / ABSOLUTE SEGMENTED NEUTROPHIL / BASOPHIL / EOSINOPHIL / ERYTHROCYTE COUNT / HEMATOCRIT / HEMOGLOBIN / LEUKOCYTE COUNT / LYMPHOCYTE / MEAN CORPUSCULAR HEMOGLOBIN / MEAN CORPUSCULAR HEMOGLOBIN CONCENTRATION / MEAN CORPUSCULAR VOLUME / MONOCYTE / NEUTROPHIL / NUCLEATED RED BLOOD CELLS / PLATELET COUNT: tissue Blood; for ALANINE AMINOTRANSFERASE / ALBUMIN / ALKALINE PHOSPHATASE / ASPARTATE AMINOTRANSFERASE / BLOOD UREA NITROGEN / CARBON DIOXIDE / CHLORIDE / CHOLESTEROL / CREATINE PHOSPHOKINASE / CREATININE / GLUCOSE / LACTATE DEHYDROGENASE / LIPASE / PHOSPHORUS / POTASSIUM / SODIUM / TOTAL BILIRUBIN / TOTAL PROTEIN / URIC ACID: tissue Plasma
# [1] = 50 mg/kg, 120 h, dose level Low, time 5 day
# [2] = 1500 mg/kg, 72 h, dose level High, time 3 day
# [3] = 1500 mg/kg, 120 h, dose level High, time 5 day
compound,measurement,setting,value
CNC(=C[N+](=O)[O-])NCCSCc1ccc(CN(C)C)o1 [RANITIDINE],ABSOLUTE BASOPHIL,[1],0 CELLS/uL
same,ABSOLUTE EOSINOPHIL,[1],64.67 CELLS/uL
same,ABSOLUTE LYMPHOCYTE,[1],14230.33 CELLS/uL
same,ABSOLUTE MONOCYTE,[1],0 CELLS/uL
same,ABSOLUTE SEGMENTED NEUTROPHIL,[1],1138.33 CELLS/uL
same,BASOPHIL,[1],0%
same,EOSINOPHIL,[1],0.33%
same,ERYTHROCYTE COUNT,[1],5.36 x10E6/uL
same,HEMATOCRIT,[1],34.53%
same,HEMOGLOBIN,[1],13.67 G/DL
same,LEUKOCYTE COUNT,[1],15.43 x10E3/uL
same,LYMPHOCYTE,[1],92.67%
same,MEAN CORPUSCULAR HEMOGLOBIN,[1],25.53 pg
same,MEAN CORPUSCULAR HEMOGLOBIN CONCENTRATION,[1],39.6 G/DL
same,MEAN CORPUSCULAR VOLUME,[1],64.47 fL
same,MONOCYTE,[1],0%
same,NEUTROPHIL,[1],7%
same,NUCLEATED RED BLOOD CELLS,[1],0 /100WBC
same,PLATELET COUNT,[1],1360.67 x10E3/uL
same,ALANINE AMINOTRANSFERASE,[1],42 u/L
same,ALBUMIN,[1],4.17 G/DL
same,ALKALINE PHOSPHATASE,[1],395 u/L
same,ASPARTATE AMINOTRANSFERASE,[1],70.33 u/L
same,BLOOD UREA NITROGEN,[1],17 mg/dL
same,CARBON DIOXIDE,[1],28 mmol/L
same,CHLORIDE,[1],102 MEQ/L
same,CHOLESTEROL,[1],50.33 mg/dL
same,CREATINE PHOSPHOKINASE,[1],245.67 u/L
same,CREATININE,[1],0.19 mg/dL
same,GLUCOSE,[1],148 mg/dL
same,LACTATE DEHYDROGENASE,[1],98 u/L
same,LIPASE,[1],8.67 u/L
same,PHOSPHORUS,[1],12.1 mg/dL
same,POTASSIUM,[1],6.46 MEQ/L
same,SODIUM,[1],145.6 MEQ/L
same,TOTAL BILIRUBIN,[1],0.2 mg/dL
same,TOTAL PROTEIN,[1],6 G/DL
same,URIC ACID,[1],1.33 mg/dL
same,ABSOLUTE BASOPHIL,[2],0 CELLS/uL
same,ABSOLUTE EOSINOPHIL,[2],49.67 CELLS/uL
same,ABSOLUTE LYMPHOCYTE,[2],15225.67 CELLS/uL
same,ABSOLUTE MONOCYTE,[2],162.67 CELLS/uL
same,ABSOLUTE SEGMENTED NEUTROPHIL,[2],1162 CELLS/uL
same,BASOPHIL,[2],0%
same,EOSINOPHIL,[2],0.33%
same,ERYTHROCYTE COUNT,[2],5.61 x10E6/uL
same,HEMATOCRIT,[2],35.4%
same,HEMOGLOBIN,[2],14 G/DL
same,LEUKOCYTE COUNT,[2],16.6 x10E3/uL
same,LYMPHOCYTE,[2],91.67%
same,MEAN CORPUSCULAR HEMOGLOBIN,[2],24.97 pg
same,MEAN CORPUSCULAR HEMOGLOBIN CONCENTRATION,[2],39.57 G/DL
same,MEAN CORPUSCULAR VOLUME,[2],63.03 fL
same,MONOCYTE,[2],1%
same,NEUTROPHIL,[2],7%
same,NUCLEATED RED BLOOD CELLS,[2],0.33 /100WBC
same,PLATELET COUNT,[2],1234.33 x10E3/uL
same,ALANINE AMINOTRANSFERASE,[2],53 u/L
same,ALBUMIN,[2],4.17 G/DL
same,ALKALINE PHOSPHATASE,[2],349.67 u/L
same,ASPARTATE AMINOTRANSFERASE,[2],86.67 u/L
same,BLOOD UREA NITROGEN,[2],14.67 mg/dL
same,CARBON DIOXIDE,[2],31 mmol/L
same,CHLORIDE,[2],101.33 MEQ/L
same,CHOLESTEROL,[2],68 mg/dL
same,CREATINE PHOSPHOKINASE,[2],268.67 u/L
same,CREATININE,[2],0.18 mg/dL
same,GLUCOSE,[2],146 mg/dL
same,LACTATE DEHYDROGENASE,[2],319.67 u/L
same,LIPASE,[2],9.33 u/L
same,PHOSPHORUS,[2],12.6 mg/dL
same,POTASSIUM,[2],7.13 MEQ/L
same,SODIUM,[2],145.5 MEQ/L
same,TOTAL BILIRUBIN,[2],0.17 mg/dL
same,TOTAL PROTEIN,[2],5.6 G/DL
same,URIC ACID,[2],1.37 mg/dL
same,ABSOLUTE BASOPHIL,[3],0 CELLS/uL
same,ABSOLUTE EOSINOPHIL,[3],61.33 CELLS/uL
same,ABSOLUTE LYMPHOCYTE,[3],16689.33 CELLS/uL
same,ABSOLUTE MONOCYTE,[3],42 CELLS/uL
same,ABSOLUTE SEGMENTED NEUTROPHIL,[3],1274 CELLS/uL
same,BASOPHIL,[3],0%
same,EOSINOPHIL,[3],0.33%
same,ERYTHROCYTE COUNT,[3],6.18 x10E6/uL
same,HEMATOCRIT,[3],38.9%
same,HEMOGLOBIN,[3],15.3 G/DL
same,LEUKOCYTE COUNT,[3],18.07 x10E3/uL
same,LYMPHOCYTE,[3],92.67%
same,MEAN CORPUSCULAR HEMOGLOBIN,[3],24.8 pg
same,MEAN CORPUSCULAR HEMOGLOBIN CONCENTRATION,[3],39.33 G/DL
same,MEAN CORPUSCULAR VOLUME,[3],63.03 fL
same,MONOCYTE,[3],0.33%
same,NEUTROPHIL,[3],6.67%
same,NUCLEATED RED BLOOD CELLS,[3],0 /100WBC
same,PLATELET COUNT,[3],1282 x10E3/uL
same,ALANINE AMINOTRANSFERASE,[3],57.33 u/L
same,ALBUMIN,[3],4.27 G/DL
same,ALKALINE PHOSPHATASE,[3],392.67 u/L
same,ASPARTATE AMINOTRANSFERASE,[3],93.67 u/L
same,BLOOD UREA NITROGEN,[3],15.67 mg/dL
same,CARBON DIOXIDE,[3],21.33 mmol/L
same,CHLORIDE,[3],100.33 MEQ/L
same,CHOLESTEROL,[3],69.67 mg/dL
same,CREATINE PHOSPHOKINASE,[3],330.33 u/L
same,CREATININE,[3],0.23 mg/dL
same,GLUCOSE,[3],154 mg/dL
same,LACTATE DEHYDROGENASE,[3],426.67 u/L
same,LIPASE,[3],10 u/L
same,PHOSPHORUS,[3],12.5 mg/dL
same,POTASSIUM,[3],6.43 MEQ/L
same,SODIUM,[3],144.53 MEQ/L
same,TOTAL BILIRUBIN,[3],0.23 mg/dL
same,TOTAL PROTEIN,[3],6.27 G/DL
same,URIC ACID,[3],2.73 mg/dL
